Earlier results in patent US6972176B2, “KVLQT1—a long QT syndrome gene” (University of Utah Research Foundation, priority 1995, dated 2005).

Target: T1, IKs in isolated myocytes (Cavia porcellus, UniProt O70344)
T1 construct: host or cells: isolated cardiac myocytes
T1 sequence (O70344 1-671): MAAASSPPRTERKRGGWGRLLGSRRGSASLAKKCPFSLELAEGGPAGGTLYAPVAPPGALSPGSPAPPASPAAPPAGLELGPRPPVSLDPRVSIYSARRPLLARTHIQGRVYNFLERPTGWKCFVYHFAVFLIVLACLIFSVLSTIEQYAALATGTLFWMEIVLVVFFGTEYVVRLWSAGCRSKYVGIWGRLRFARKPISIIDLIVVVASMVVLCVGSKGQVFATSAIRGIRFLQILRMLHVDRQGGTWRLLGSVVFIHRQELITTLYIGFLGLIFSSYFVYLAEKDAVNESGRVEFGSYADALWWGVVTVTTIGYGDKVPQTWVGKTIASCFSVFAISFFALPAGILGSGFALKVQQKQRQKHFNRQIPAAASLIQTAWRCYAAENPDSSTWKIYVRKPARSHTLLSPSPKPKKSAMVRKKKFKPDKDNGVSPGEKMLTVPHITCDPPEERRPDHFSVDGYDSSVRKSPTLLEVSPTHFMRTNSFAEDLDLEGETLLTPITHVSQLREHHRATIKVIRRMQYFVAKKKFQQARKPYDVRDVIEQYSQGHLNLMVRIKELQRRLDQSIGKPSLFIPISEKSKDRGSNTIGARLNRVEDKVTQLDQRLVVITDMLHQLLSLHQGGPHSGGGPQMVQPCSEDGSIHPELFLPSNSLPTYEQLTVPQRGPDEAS
Settings: Balser et al, 1991

block of IKs: 40-50%
Structure (SMILES): C=C[C@H]1C[N@@]2CC[C@H]1C[C@@H]2[C@@H](O)c1ccnc2ccc(OC)cc12 [Quinidine]
